Experimental data published in patent US6627732B1, “Glutathione derivatives and their dosage forms” (Teijin Limited, priority 1998, dated 2003).
Counter-ions that a name gives are not always drawn. Starred links: 1 amine or outer side, 2 acyl side, 3 side chain; linkers in the order of their positions; H or OH if unused. Non-standard residues stand in square brackets, D forms with d. Residues, ends and D or L forms follow the SMILES beside them. *: point of attachment. γGlu = O=C(O)[C@H](CCC(=O)[*:2])N[*:1]; dPhg = N[C@@H](C(=O)O)c1ccccc1; Bn = c1ccc(C*)cc1

Legend:
[1] = tested on: HL-60 cells; experiment: HL-60 cell differentiation induction, NBT reducing activity, DMSO as solvent (Example 21); assay type: cell-based, human
From the text: In a manner similar to that in Example 20, the in vitro activity of the glutathione derivatives of Examples 4, 5, and 8, and Comparative Example 3 were compared.
(1) The differences from Example 20 were: First, since the glutathione derivatives of Examples and Comparative Examples used dimethyl sulfoxide (DMSO) as the solvent because of the solubility of the compounds, the system contained 0.1-0.3 (v/v)% DMSO instead of ethanol. […] This caused slight differences in the sensitivity in the test results of the glutathione derivative of Example 4. Furthermore, in Example 21, the differentiation induction on HL-60 cells into granulocytic cells in the coexistence of 9-cis-RA was only evaluated.

[2] = tested on: swine liver esterase; experiment: Decomposition of glutathione derivatives by swine liver esterase (physiological stability); assay type: in vitro ADME; conditions: BSA/D-PBS pH 7.4, 196-244 μg/ml
Description: (§1) (1) Bovine serum albumin (hereinafter referred to as BSA), Dulbecco's phosphate buffered saline (hereinafter referred to as D-PBS), swine liver esterase, and rabbit liver esterase were purchased from Sigma, 6-week old male SD rats were purchased from Nippon SLC, and 12-week old or older male Japanese white rabbits were purchased from Ichikawaya. On the day of the incubation experiment described below, blood was drawn from the animals in the presence of heparin, and plasma was separated therefrom for use. Human plasma was obtained from normal healthy males after obtaining their consent.
(§2) (2) The glutathione derivatives described in the Examples and Comparative Examples of the present invention were incubated for a fixed time in an enzyme solution having the following composition. Acetonitrile was added to the reaction mixture to inactivate the enzyme thereby to stop the reaction. The concentration of the glutathione derivatives in the deproteinized supernatant was measured by HPLC. For each time point of the esterase enzyme experiment, the mean values from two measurement or more were determined, and for the rats and rabbits the mean values of plasma samples from three individuals were determined. For some of the experiment data, changes with time of percentages relative to initial concentration of the glutathione derivative are shown in FIGS. 2 to 4.
(§3) Swine liver esterase and rabbit liver esterase experiment
(§4) 30 mg-BSA/ml-D-PBS (pH 7.4): 36 to 45 parts
(§5) Swine or rabbit liver esterase/D-PBS: 4-5 parts
(§6) 10 mg-glutathione derivative/ml-ethanol: one part (the final concentration in the reaction mixture is 196-244 μg/ml)

[3] = tested on: rabbit liver esterase; experiment: Decomposition of glutathione derivatives by rabbit liver esterase (physiological stability); assay type: in vitro ADME; conditions: BSA/D-PBS pH 7.4, 196-244 μg/ml
Description: as §1, §2, §3, §4, §5, §6

[4] = Stability in rabbit plasma; conditions: rabbit, plasma
Description: as §1, §2
Rat, rabbit, and human plasma
Heparinized plasma: 30 to 40 parts
10 mg-glutathione derivative/ml-ethanol: one part (the final concentration in the reaction mixture is 250-323 μg/ml)

[5] = Pharmacokinetics after intravenous administration to rabbits, 2-compartment model (Example 25); assay type: in vivo, rabbit; conditions: iv auricular vein 2 ml/kg, fat emulsion (Comparative Ex. 1: HPCD/glucose solution)
From the text: For the glutathione derivative of the present invention having a long-chain ester having 12 carbons or more and the glutathione derivatives of the conventional technology of Comparative Examples 1 and 2, kinetics in the blood were compared in rabbits that are a species having allow esterase activity in the blood.
(1) Male Japanese white rabbits, 12-week old or older, were purchased from Ichikawaya, and those rabbits that became 15-week old or older and whose body weight reached about 3 kg were used for the experiment. During the period up to the experiment, the animals were allowed free access to the animal feed and drinking water and were kept at a temperature of 24±2° C. and a humidity of 55±5%.
(2) The glutathione derivative having a long-chain ester of 12 carbons or more and the glutathione derivative of Comparative Example 2 were prepared at 20-200 mg/ml in a mixture of ethanol or ethanol:benzyl alcohol, which was mixed with the fat emulsion just prior to use, and was filtered with a 1.2 μm filter to obtain a liquid for intravenous administration. On the other hand, the glutathione derivative of Comparative Example 1 was dissolved in an aqueous solution of 6%-hydroxypropyl-β-cyclodextrin/5%-glucose at 15 mg/ml to obtain an administration liquid.
(3) The administration liquid of the glutathione derivative obtained in (2) at a dose of 2 ml/kg was rapidly infused into the left auricular vein of the rabbits under no anesthesia and under restraint at a rate of 1 ml/min. Each glutathione derivative was given to three or more rabbits. At 5, 10, 15, 30, 60, 120, and 240 minutes after the completion of the administration, 1 ml of the blood was drawn from the right auricular vein in the presence of heparin, which was immediately cooled on ice. Plasma was obtained by centrifuging the blood, 1-2 volume parts of acetonitrile was added to deproteinize the supernatant, which was filtered by a 0.5 μm filter. The supernatant of the filtrate was quantitated by HPLC.

Decomposition rate constant by swine liver esterase [2]	Decomposition rate constant by rabbit liver esterase [3]	Half life in rabbit plasma [4]	SMILES	Ratio of NBT reduction activity-positive cells ([1]; compound 3 × 10^−6 M in DMSO, Solvent control (EtOH - 0.1%))	Ratio of NBT reduction activity-positive cells ([1]; compound 3 × 10^−6 M in DMSO, with 9-cis-RA (5 × 10^−9 M))	Ratio of NBT reduction activity-positive cells ([1]; compound 3 × 10^−7 M in DMSO, Solvent control (EtOH - 0.1%))	Ratio of NBT reduction activity-positive cells ([1]; compound 3 × 10^−7 M in DMSO, with 9-cis-RA (5 × 10^−9 M))	Ratio of NBT reduction activity-positive cells ([1]; compound 3 × 10^−8 M in DMSO, Solvent control (EtOH - 0.1%))	Ratio of NBT reduction activity-positive cells ([1]; compound 3 × 10^−8 M in DMSO, with 9-cis-RA (5 × 10^−9 M))	Ratio of NBT reduction activity-positive cells ([1]; compound 10^−6 M in DMSO, Solvent control (EtOH - 0.1%))	Ratio of NBT reduction activity-positive cells ([1]; compound 10^−6 M in DMSO, with 9-cis-RA (5 × 10^−9 M))	Ratio of NBT reduction activity-positive cells ([1]; compound 10^−7 M in DMSO, Solvent control (EtOH - 0.1%))	Ratio of NBT reduction activity-positive cells ([1]; compound 10^−7 M in DMSO, with 9-cis-RA (5 × 10^−9 M))	Ratio of NBT reduction activity-positive cells ([1]; compound 10^−8 M in DMSO, Solvent control (EtOH - 0.1%))	Ratio of NBT reduction activity-positive cells ([1]; compound 10^−8 M in DMSO, with 9-cis-RA (5 × 10^−9 M))	Clearance per body weight [5]	Distribution volume per body weight of the central compartment [5]
			N[C@@H](CCC(=O)N[C@@H](CSCc1ccccc1)C(=O)N[C@@H](C(=O)O)c1ccccc1)C(=O)O [Comparative Example 3, Glu(Cys(Bzl)-D-Phg-OH)-OH Hydrochloride, reference compound] (γGlu-Cys(Bn)-[dPhg]-OH)	0.6%	17.1%	0.6%	3.8%	0.5%	2.8%	0.3%	6.1%	0.3%	3.5%	0.7%	3.1%		
88.5 10^−4/unit/min	54.2 10^−4/unit/min	3.02 h	CCCCCCCCCCOC(=O)[C@H](NC(=O)[C@H](CSCc1ccccc1)NC(=O)CC[C@H](N)C(=O)OCC)c1ccccc1.Cl [Comparative Example 4, Glu(Cys(Bzl)-D-Phg-O(Decyl))-OEt Hydrochloride, reference compound]														
	0.523 10^−4/unit/min		CCCCCCCCCCCCCCCCCCCCCCOC(=O)[C@@H](N)CCC(=O)N[C@@H](CSCc1ccccc1)C(=O)N[C@@H](C(=O)OCC)c1ccccc1.Cl [Example 2, Glu(Cys(Bzl)-D-Phg-OEt)-O(Docosyl)hydrochloride]													0.83 mL/min/kg	0.07 L/kg
